# Results: patent publication US8680159B2, “Bradykinin 1 receptor modulating compounds” (Gruenenthal GmbH, priority 2010, dated 2014)
# Target: T1, B1R receptor of the rat (CHO K1 cells stably transfected with the B1R gene of the rat) (Rattus norvegicus, UniProt P97583)
# T1 construct: expressed in transfected cells; host or cells: CHO K1 cells (Chinese hamster ovary), stably transfected
# T1 sequence (P97583 1-337): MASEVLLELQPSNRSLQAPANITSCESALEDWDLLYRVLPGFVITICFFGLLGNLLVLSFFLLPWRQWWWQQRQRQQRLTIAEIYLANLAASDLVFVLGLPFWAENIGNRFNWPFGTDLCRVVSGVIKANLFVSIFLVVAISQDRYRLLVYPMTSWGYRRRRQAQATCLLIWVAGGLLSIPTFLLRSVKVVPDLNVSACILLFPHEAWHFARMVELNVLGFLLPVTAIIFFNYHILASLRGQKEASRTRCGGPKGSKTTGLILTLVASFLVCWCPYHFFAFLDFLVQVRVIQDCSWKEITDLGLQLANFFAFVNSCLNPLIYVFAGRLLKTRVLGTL
# Assay: Functional study on the bradykinin receptor 1 (B1R), Ca2+ fluorescence (Fluo-4) FLIPR/Novostar assay, rB1R cells
# Assay type: cell-based
# Settings: 10 μM
# Description: The agonistic or antagonistic action of substances can be quantified on the bradykinin receptor 1 (B1R) of the species human and rat using ectopically expressing cell lines (CHO K1 cells) and with the aid of a Ca^2+-sensitive dye (Fluo-4) using a fluorescent imaging plate reader (FLIPR). The indication in % activation is based on the Ca^2+ signal after addition of Lys-Des-Arg^9-bradykinin (0.5 nM) or Des-Arg^9-bradykinin (100 nM). Antagonists lead to suppression of the Ca^2+ influx after the addition of the agonist. % Inhibition compared with the maximum achievable inhibition is indicated.
# The agonistic or antagonistic action of substances can be determined on the bradykinin receptor 1 (B1R) of the species human and rat using the following assay. According to this assay, the increase in intracellular Ca^2+ following administration of a B1R agonist is quantified with the aid of a Ca^2+-sensitive dye (Fluo-4 type, Molecular Probes Europe BV, Leiden, Netherlands) using a Fluorescent Imaging Plate Reader (FLIPR, Molecular Devices, Sunnyvale, USA) and/or using a Novostar (BMG Labtech GmbH, Offenburg, Germany).
# Chinese hamster ovary cells (CHO K1 cells) which have been stably transfected with the human B1R gene (hB1R cells) or with the B1R gene of the rat (rB1R cells) are used. For functional studies, the cells are plated out on black 96-well plates having a clear base (BD Biosciences, Heidelberg, Germany or Greiner, Frickenhausen, Germany) in a density of 20,000-35,000 cells/well. The cells are left overnight at 37° C. and with 5% CO2 in culture medium (hB1R cells: Nutrient Mixture Ham's F12, Gibco Invitrogen GmbH, Karlsruhe, Germany or DMEM, Sigma-Aldrich, Taufkirchen, Germany; rB1R cells: D-MEM/F12, Gibco Invitrogen GmbH, Karlsruhe, Germany), with 10 vol. % FBS (fetal bovine serum, Gibco Invitrogen GmbH, Karlsruhe, Germany or PAN Biotech GmbH, Aidenbach, Germany). On the following day, the cells are loaded for 60 minutes at 37° C. with 2.13 μM Fluo-4 (Molecular Probes Europe BV, Leiden, Netherlands) in HBSS buffer (Hank's buffered saline solution, Gibco Invitrogen GmbH, Karlsruhe, Germany) […] (Sigma-Aldrich, Taufkirchen, Germany) and 10 mM HEPES (Sigma-Aldrich, Taufkirchen, Germany). The plates are then washed twice with HBSS buffer, and HBSS buffer additionally containing 0.1% BSA (bovine serum albumin; Sigma-Aldrich, Taufkirchen, Germany), 5.6 mM glucose and 0.05% gelatin (Merck KGaA, Darmstadt, Germany) is added to the plates. After incubation for a further 20 minutes at room temperature, the plates are inserted into the FLIPR or Novostar for Ca^2+ measurement. Alternatively, washing is carried out with buffer A (15 mM HEPES, 80 mM NaCl, 5 mM KCl, 1.2 mM CaCl2, 0.7 mM MgSO4, 2 g/l glucose, 2.5 mM probenecid) followed by loading with buffer A with added 2.5 μM Fluo-4 and 0.025% Pluronic F127 (Sigma-Aldrich, Taufkirchen, Germany). The cells are then washed twice with buffer A and incubated for 30 minutes at room temperature with buffer A additionally containing 0.05% BSA and 0.05% gelatin and are then inserted into the FLIPR or Novostar for Ca^2+ measurement. The Ca^2+-dependent fluorescence is measured before and after the addition of substances (λex=488 nm, λem=540 nm). Quantification is carried out by measuring the highest fluorescence intensity (FC, fluorescence counts) over time.
# The FLIPR protocol consists of 2 substance additions, which are pipetted in the FLIPR. In the case of measurements using the Novostar, only the second substance addition is pipetted in the device. Both devices measure the fluorescence intensity over time. Test substances (10 μM) are first pipetted onto the cells and the intracellular Ca^2+ increase is compared with the control (hB1R: Lys-Des-Arg^9-bradykinin>=50 nM; rB1R: Des-Arg^9-bradykinin>=1 μM). This gives the % activation, based on the Ca^2+ signal after addition of Lys-Des-Arg^9-bradykinin (>=50 nM) or Des-Arg^9-bradykinin (>=1 μM). […]
row,% Inhibition (r-B1R) at 10 μM,Compound
1,107%,"CN(C(=O)NC1CC(C)(C)c2ccc(C(=O)N(C)C3CCN(c4ccncc4)CC3)cc21)c1ccccc1Cl (stereo not shown) [CC_H-245, 3-[[(2-Chlorophenyl)-methyl-carbamoyl]amino]-N,1,1-trimethyl-N-(1-pyridin-4-yl-piperidin-4-yl)-2,3-dihydro-indene-5-carboxylic acid amide]"

# Same assay, conditions: CHO-K1, 10 μM, read-out: % Inhibition (r-B1R) at 10 μM
row,Compound,inhibition at 10 µM
1,"CN(C(=O)c1ccc2c(c1)C(N(C)C(=O)Nc1cc(Cl)ccc1Cl)CC2)C1CCN(c2ccncc2)CC1 (stereo not shown) [CC_H-221, 3-[[(2,5-Dichloro-phenyl)-carbamoyl]-methyl-amino]-N-methyl-N-(1-pyridin-4-yl-piperidin-4-yl)-2,3-dihydro-1H-indene-5-carboxylic acid amide]",67%
2,"CN(C(=O)c1ccc2c(c1)C(NC(=O)c1cc(F)ccc1Cl)CC2(C)C)C1CCN(c2ccncc2)CC1 (stereo not shown) [CC_H-222, 3-[(2-Chloro-5-fluoro-benzoyl)amino]-N,1,1-trimethyl-N-(1-pyridin-4-yl-piperidin-4-yl)-2,3-dihydro-indene-5-carboxylic acid amide]",110%
3,"CN(C(=O)c1ccc2c(c1)C(NC(=O)c1cc(C(F)(F)F)ccc1Cl)CC2(C)C)C1CCN(c2ccncc2)CC1 (stereo not shown) [CC_H-223, 3-[[2-Chloro-5-(trifluoromethyl)-benzoyl]amino]-N,1,1-trimethyl-N-(1-pyridin-4-yl-piperidin-4-yl)-2,3-dihydro-indene-5-carboxylic acid amide]",109%
4,"Cc1ccc(F)c(C(=O)NC2CC(C)(C)c3ccc(C(=O)N(C)C4CCN(c5ccncc5)CC4)cc32)c1Cl (stereo not shown) [CC_H-224, 3-[(2-Chloro-6-fluoro-3-methyl-benzoyl)amino]-N,1,1-trimethyl-N-(1-pyridin-4-yl-piperidin-4-yl)-2,3-dihydro-indene-5-carboxylic acid amide]",110%
5,"CN(C(=O)c1ccc2c(c1)C(NC(=O)c1c(Cl)cccc1C(F)(F)F)CC2(C)C)C1CCN(c2ccncc2)CC1 (stereo not shown) [CC_H-225, 3-[[2-Chloro-6-(trifluoromethyl)-benzoyl]amino]-N,1,1-trimethyl-N-(1-pyridin-4-yl-piperidin-4-yl)-2,3-dihydro-indene-5-carboxylic acid amide]",112%
6,"CN(C(=O)c1ccc2c(c1)C(NC(=O)C1CC1)CC2(C)C)C1CCN(c2ccncc2)CC1 (stereo not shown) [CC_H-226, 3-(Cyclopropanecarbonylamino)-N,1,1-trimethyl-N-(1-pyridin-4-yl-piperidin-4-yl)-2,3-dihydro-indene-5-carboxylic acid amide]",99%
7,"CN(C(=O)c1ccc2c(c1)C(NC(=O)CC(C)(C)C)CC2(C)C)C1CCN(c2ccncc2)CC1 (stereo not shown) [CC_H-227, 3-(3,3-Dimethyl-butanoylamino)-N,1,1-trimethyl-N-(1-pyridin-4-yl-piperidin-4-yl)-2,3-dihydro-indene-5-carboxylic acid amide]",112%
8,"COCC(=O)NC1CC(C)(C)c2ccc(C(=O)N(C)C3CCN(c4ccncc4)CC3)cc21 (stereo not shown) [CC_H-228, 3-[(2-Methoxy-acetyl)amino]-N,1,1-trimethyl-N-(1-pyridin-4-yl-piperidin-4-yl)-2,3-dihydro-indene-5-carboxylic acid amide]",107%
9,"CC(=O)NC1CC(C)(C)c2ccc(C(=O)N(C)C3CCN(c4ccncc4)CC3)cc21 (stereo not shown) [CC_H-229, 3-Acetylamino-N,1,1-trimethyl-N-(1-pyridin-4-yl-piperidin-4-yl)-2,3-dihydro-indene-5-carboxylic acid amide]",104%
10,"Cc1cccc(Cl)c1S(=O)(=O)NC1CC(C)(C)c2ccc(C(=O)N(C)C3CCN(c4ccncc4)CC3)cc21 (stereo not shown) [CC_H-230, 3-[[(2-Chloro-6-methyl-phenyl)sulfonyl]amino]-N,1,1-trimethyl-N-(1-pyridin-4-yl-piperidin-4-yl)-2,3-dihydro-indene-5-carboxylic acid amide]",110%
11,"CN(C(=O)c1ccc2c(c1)C(NC(=O)c1cccc(C(F)(F)F)c1Cl)CC2(C)C)C1CCN(c2ccncc2)CC1 (stereo not shown) [CC_H-231, 3-[[2-Chloro-3-(trifluoromethyl)-benzoyl]amino]-N,1,1-trimethyl-N-(1-pyridin-4-yl-piperidin-4-yl)-2,3-dihydro-indene-5-carboxylic acid amide]",111%
12,"CN(C(=O)c1ccc2c(c1)C(NC(=O)Nc1ccccc1Cl)CC2(C)C)C1CCN(c2ccncc2)CC1 (stereo not shown) [CC_H-232, 3-[[(2-Chlorophenyl)-carbamoyl]amino]-N,1,1-trimethyl-N-(1-pyridin-4-yl-piperidin-4-yl)-2,3-dihydro-indene-5-carboxylic acid amide]",96%
13,"CN(C(=O)c1ccc2c(c1)C(NC(=O)Nc1cccc(Cl)c1)CC2(C)C)C1CCN(c2ccncc2)CC1 (stereo not shown) [CC_H-233, 3-[[(3-Chlorophenyl)-carbamoyl]amino]-N,1,1-trimethyl-N-(1-pyridin-4-yl-piperidin-4-yl)-2,3-dihydro-indene-5-carboxylic acid amide]",63%

# The remaining lines, values ahead:
row,inhibition at 10 µM,Compound
1,108%,"CN(C(=O)c1ccc2c(c1)C(NC(=O)Nc1c(Cl)cccc1Cl)CC2(C)C)C1CCN(c2ccncc2)CC1 (stereo not shown) [CC_H-234, 3-[[(2,6-Dichloro-phenyl)-carbamoyl]amino]-N,1,1-trimethyl-N-(1-pyridin-4-yl-piperidin-4-yl)-2,3-dihydro-indene-5-carboxylic acid amide]"
2,65%,"CN(C(=O)c1ccc2c(c1)C(NC(=O)Nc1cccc(Cl)c1Cl)CC2(C)C)C1CCN(c2ccncc2)CC1 (stereo not shown) [CC_H-235, 3-[[(2,3-Dichloro-phenyl)-carbamoyl]amino]-N,1,1-trimethyl-N-(1-pyridin-4-yl-piperidin-4-yl)-2,3-dihydro-indene-5-carboxylic acid amide]"
3,52%,"CN(C(=O)c1ccc2c(c1)C(NC(=O)Nc1cc(Cl)ccc1Cl)CC2(C)C)C1CCN(c2ccncc2)CC1 (stereo not shown) [CC_H-236, 3-[[(2,5-Dichloro-phenyl)-carbamoyl]amino]-N,1,1-trimethyl-N-(1-pyridin-4-yl-piperidin-4-yl)-2,3-dihydro-indene-5-carboxylic acid amide]"
4,52%,"CN(C(=O)c1ccc2c(c1)C(NC(=O)Nc1ccc(F)c(Cl)c1)CC2(C)C)C1CCN(c2ccncc2)CC1 (stereo not shown) [CC_H-242, 3-[[(3-Chloro-4-fluoro-phenyl)-carbamoyl]amino]-N,1,1-trimethyl-N-(1-pyridin-4-yl-piperidin-4-yl)-2,3-dihydro-indene-5-carboxylic acid amide]"
5,112%,"CN(C(=O)c1ccc2c(c1)C(NC(=O)c1cc(F)ccc1Cl)CCC2)C1CCN(c2ccncc2)CC1 (stereo not shown) [CC_H-246, 8-[(2-Chloro-5-fluoro-benzoyl)amino]-N-methyl-N-(1-pyridin-4-yl-piperidin-4-yl)-5,6,7,8-tetrahydro-naphthalene-2-carboxylic acid amide]"
